Laboratory results taken from the supplement of paper PMC10307832.

Experiments:
Test in all cases: relative viability (nuclei count vs DMSO), 5 days (fraction); higher = more cells survive
[1] = compound: C1=CC2=NC=CN=C2C=C1/C=C/3\C(=O)NC(=O)S3 + COc1cc2c(Oc3ccc(NC(=O)C4(C(=O)Nc5ccc(F)cc5)CC4)cc3F)ccnc2cc1OCCCN1CCOCC1 [Foretinib] (partner 0.25 µM)
How it was run: (§1)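 Values are medians from duplicate plates. Each reflects relative viability, defined as the nuclei count of treated wells over that of vehicle wells. Lung cancer cell lines in 1536-well plates were pin-tool dosed one day after seeding with one drug alone or with a fixed anchor-drug dose plus five library-drug doses (not always all listed) in √10 steps, then fixed, stained and imaged at 4× after 5 days.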

BGJ398 + OSI-027 = compound: CCN1CCN(c2ccc(Nc3cc(N(C)C(=O)Nc4c(Cl)c(OC)cc(OC)c4Cl)ncn3)cc2)CC1 [BGJ398] + COc1cccc2cc(-c3nc([C@H]4CC[C@H](C(=O)O)CC4)n4ncnc(N)c34)[nH]c12 [OSI-027] (partner 0.5 µM)
How it was run: as §1

BGJ398 + Lapatinib = compound: CCN1CCN(c2ccc(Nc3cc(N(C)C(=O)Nc4c(Cl)c(OC)cc(OC)c4Cl)ncn3)cc2)CC1 [BGJ398] + CS(=O)(=O)CCNCc1ccc(-c2ccc3ncnc(Nc4ccc(OCc5cccc(F)c5)c(Cl)c4)c3c2)o1 [Lapatinib] (partner 2 µM)
How it was run: as §1

BGJ398 + Pemetrexed = compound: CCN1CCN(c2ccc(Nc3cc(N(C)C(=O)Nc4c(Cl)c(OC)cc(OC)c4Cl)ncn3)cc2)CC1 [BGJ398] + Nc1nc2[nH]cc(CCc3ccc(C(=O)N[C@@H](CCC(=O)O)C(=O)O)cc3)c2c(=O)[nH]1 [Pemetrexed] (partner 0.2 µM)
How it was run: as §1

Cell Line	relative viability ([1]; first compound 0.02 µM)	relative viability ([1]; first compound 0.06325 µM)	relative viability ([1]; first compound 0.2 µM)	relative viability ([1]; first compound 0.6325 µM)	relative viability ([1]; first compound 2 µM)	relative viability (BGJ398 + OSI-027; first compound 0.01 µM)	relative viability (BGJ398 + OSI-027; first compound 0.03162 µM)	relative viability (BGJ398 + OSI-027; first compound 0.1 µM)	relative viability (BGJ398 + OSI-027; first compound 0.3162 µM)	relative viability (BGJ398 + OSI-027; first compound 1 µM)	relative viability (BGJ398 + Lapatinib; first compound 0.01 µM)	relative viability (BGJ398 + Lapatinib; first compound 0.03162 µM)	relative viability (BGJ398 + Lapatinib; first compound 0.1 µM)	relative viability (BGJ398 + Lapatinib; first compound 0.3162 µM)	relative viability (BGJ398 + Lapatinib; first compound 1 µM)	relative viability (BGJ398 + Pemetrexed; first compound 0.01 µM)	relative viability (BGJ398 + Pemetrexed; first compound 0.03162 µM)	relative viability (BGJ398 + Pemetrexed; first compound 0.1 µM)	relative viability (BGJ398 + Pemetrexed; first compound 0.3162 µM)	relative viability (BGJ398 + Pemetrexed; first compound 1 µM)
201T	0.866	0.977	1.12	1.06	0.758	0.781	0.825	0.793	0.636	0.564	1.14	1.02	0.997	1.02	0.697	0.343	0.339	0.338	0.329	0.334
A549	0.965	1.05	0.889	0.835	0.984						0.885	0.99	0.952	0.919	0.819					
A-427	1.08	1.11	1.13	1.01	1.06	0.375	0.365	0.309	0.235	0.285	1.07	1.01	1.05	0.938	0.949	1.03	1.08	0.958	0.924	0.918
ABC-1	0.93	1.24	0.875	1.27	0.999	0.435	0.505	0.442	0.403	0.408	1.07	1.06	1.16	1.23	1.22					
BEN	0.787	0.869	0.693	0.666	0.473	0.319	0.259	0.279	0.266	0.276	0.608	0.828	0.7	0.656	0.671	0.703	0.812	0.751	0.749	0.606
CAL-12T	1.07	1.05	1.09	1.01	1.15	0.539	0.773	0.83	0.673	0.491	0.661	0.685	0.763	0.726	0.585	1.17	1.21	1.1	1.34	1.01
COR-L23	0.94	0.961	0.96	0.934	0.979	0.787	0.88	0.848	0.667	0.8	0.887	0.903	1.15	0.992	0.908	0.189	0.191	0.192	0.208	0.193
COR-L 105	1	1.39	0.9	0.906	1.06	0.644	0.441	0.704	0.519	0.654	0.379	0.303	0.329	0.386	0.382	1.36	1.12	0.879	1.12	0.936
Calu-6	0.848	0.866	0.843	0.864	0.928						1.04	1.13	1.07	1.09	1.03					
